Patent publication US20230265107A1, “PB2 INHIBITOR, AND PREPARATION METHOD THEREFOR AND USE THEREOF” (priority 2020, published 2023)

Each compound was assayed on virus IFV A/PR/8/34 (assay: Cytopathic effect (CPE) method, antiviral activity against influenza virus in MDCK cells, CCK-8 cell viability). Details: PR/8, MDCK, 120 h, read-out: EC50 (IFV A/PR/8/34) nM.
Assay type: cell-based

Row | Compound | EC50 [nM]
1 | O=C(O)[C@@H]1[C@@H](Nc2nc(-c3c[nH]c4ncc(F)cc34)nn3c(C(F)(F)F)ccc23)[C@@H]2CC[C@H]1C1CC12 (stereo partly drawn) [Example 30, (1R,5S,6S,7S)-7-((2-(5-fluoro-1H-pyrrolo[2,3-b]pyridin-3-yl)-7-(trifluoromethyl)pyrrolo[2,1-f][1,2,4]triazin-4-yl)amino)tricyclo[3.2.2.0^2′4]nonane-6-carboxylic acid] | 0.37
2 | COCc1ccc2c(N[C@@H]3[C@@H](C(=O)O)[C@H]4CC[C@@H]3C3CC34)nc(-c3c[nH]c4ncc(F)cc34)nn12 (stereo partly drawn) [Example 20, (1R,5S,6S,7S)-7-((2-(5-fluoro-1H-pyrrolo[2,3-b]pyridin-3-yl)-7-(methoxymethyl)pyrrolo[2,1-f][1,2,4]triazin-4-yl)amino)tricyclo[3.2.2.0^2,4]nonane-6-carboxylic acid] | 0.3
3 | COCc1ccc2c(N[C@@H]3[C@@H](C(=O)O)[C@H]4CC[C@@H]3C3CC34)nc(-c3n[nH]c4ncc(F)cc34)nn12 (stereo partly drawn) [Example 32, (1R,5S,6S,7S)-7-((2-(5-fluoro-1H-pyrazolo[3,4-b]pyridin-3-yl)-7-(methoxymethyl)pyrrolo[2,1-f][1,2,4]triazin-4-yl)amino)tricyclo[3.2.2.0^2,4]nonane-6-carboxylic acid] | 0.24
4 | O=C(O)[C@@H]1[C@@H](Nc2nc(-c3n[nH]c4ncc(F)cc34)nn3c(C4CC4)ccc23)[C@@H]2CC[C@H]1C1CC12 (stereo partly drawn) [Example 38, (1R,5S,6S,7S)-7-((7-cyclopropyl-2-(5-fluoro-1H-pyrazolo[3,4-b]pyridin-3-yl)pyrrolo[2,1-f][1,2,4]triazin-4-yl)amino)tricyclo[3.2.2.0^2,4]nonane-6-carboxylic acid] | 0.09
5 | O=C(O)[C@@H]1[C@@H](Nc2nc(-c3n[nH]c4ncc(F)cc34)nn3c(C(F)(F)F)ccc23)[C@@H]2CC[C@H]1C1CC12 (stereo partly drawn) [Example 31, (1R,5S,6S,7S)-7-((2-(5-fluoro-1H-pyrazolo[3,4-b]pyridin-3-yl)-7-(trifluoromethyl)pyrrolo[2,1-f][1,2,4]triazin-4-yl)amino)tricyclo[3.2.2.0^2,4]nonane-6-carboxylic acid] | 0.08
6 | O=C(O)[C@H]1[C@H]2CC[C@H](CC2)[C@@H]1Nc1nc(-c2c[nH]c3ncc(F)cc23)nn2cc(C3CC3)cc12 [Example 8, (1R,2S,3S,4R)-3-((6-cyclopropyl-2-(5-fluoro-1H-pyrrolo[2,3-b]pyridin-3-yl)pyrrolo[2,1-f][1,2,4]triazin-4-yl)amino)bicyclo[2.2.2]octane-2-carboxylic acid] | 0.8
7 | O=C(O)[C@H]1[C@H]2CC[C@H](CC2)[C@@H]1Nc1nc(-c2c[nH]c3ncc(F)cc23)nn2c(C(F)(F)F)ccc12 [Example 18, (1R,2S,3S,4R)-3-((2-(5-fluoro-1H-pyrrolo[2,3-b]pyridin-3-yl)-7-(trifluoromethyl)pyrrolo[2,1-f][1,2,4]triazin-4-yl)amino)bicyclo[2.2.2]octane-2-carboxylic acid] | 0.3
